Reference: ChEMBL document CHEMBL1201862, “PubChem BioAssay data set” (2004)
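Method: 48-hour compound exposure of cells in 96-well plates, five concentrations, linear interpolation of endpoints. GI50 is the concentration that inhibits growth by half.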 The source made the active and inactive calls. No stated cut-off is given here; in the data, active = GI50 up to about 1.1 µM and inactive = higher.

Legend:
Assay in all cases: inhibition of tumour cell growth, NCI panel, 48 h
786-0 = system: 786-0
LOX IMVI = system: LOX IMVI
M14 = system: M14
Malme-3M = system: Malme-3M
NCI-H522 = system: NCI-H522
OVCAR-3 = system: OVCAR-3
OVCAR-4 = system: OVCAR-4
SF-268 = system: SF-268
SF-295 = system: SF-295
SK-MEL-5 = system: SK-MEL-5
SN12C = system: SN12C
SNB-19 = system: SNB-19
UO-31 = system: UO-31
HOP-92 = system: HOP-92
TK-10 = system: TK-10
SR = system: SR

Measured: GI50

CC(C)CCC[C@@H](C)C1CCC2[C@@H]3CC=C4C[C@@H](OC(=O)CCC(=O)NCC[N+](C)(C)CCCS(=O)(=O)[O-])CC[C@]4(C)C3CC[C@@]21C (stereo not given in full)
inactive: 786-0 25.8 µM | LOX IMVI 17.2 µM | M14 19.7 µM | Malme-3M 22.5 µM | NCI-H522 26.2 µM | OVCAR-3 17.9 µM | OVCAR-4 17.9 µM | SF-268 19.3 µM | SF-295 17 µM | SK-MEL-5 > 10 µM | SN12C 19.5 µM | SNB-19 24.3 µM | UO-31 41 µM

NNC(=O)CNC(=O)c1ccc(Cl)cc1Cl
inactive: 786-0 39.8 µM | HOP-92 > 100 µM | M14 > 100 µM | Malme-3M > 100 µM | NCI-H522 > 100 µM | OVCAR-3 > 100 µM | OVCAR-4 > 100 µM | SF-268 > 100 µM | SF-295 > 100 µM | SK-MEL-5 > 100 µM | SN12C > 100 µM | SNB-19 > 100 µM | TK-10 > 100 µM | UO-31 > 100 µM

CC(=O)OC1CC2Oc3ccc(C)cc3C(C)(O2)C1=O (stereo not given)
inactive: 786-0 > 100 µM | LOX IMVI > 100 µM | M14 > 100 µM | Malme-3M > 100 µM | NCI-H522 > 100 µM | OVCAR-3 > 100 µM | SF-295 > 100 µM | SK-MEL-5 > 100 µM | SN12C > 100 µM | SNB-19 > 100 µM | TK-10 > 100 µM | UO-31 > 100 µM

Nc1ncnc(NC2C=C(CO)C(O)C2O)c1[N+](=O)[O-] (stereo not given)
inactive: 786-0 > 100 µM | LOX IMVI > 100 µM | M14 > 100 µM | OVCAR-3 > 100 µM | OVCAR-4 > 100 µM | SF-268 > 100 µM | SF-295 > 100 µM | SK-MEL-5 > 100 µM | SN12C > 100 µM | SNB-19 > 100 µM | SR > 100 µM | TK-10 > 100 µM | UO-31 > 100 µM

COC1CCC(OC)C(C2(C3CC(OC)CCC3OC)OC(=O)c3ccccc32)C1 (stereo not given)
inactive: 786-0 > 100 µM | HOP-92 > 100 µM | M14 64.7 µM | Malme-3M > 100 µM | NCI-H522 6.85 µM | OVCAR-3 75.9 µM | OVCAR-4 70.8 µM | SF-268 > 100 µM | SF-295 82.2 µM | SK-MEL-5 26.4 µM | SN12C > 100 µM | SNB-19 > 100 µM | SR 9.16 µM | TK-10 > 100 µM | UO-31 70.3 µM

CC(=O)OCCOCNC(=S)N/N=C(\C)c1cnccn1
inactive: 786-0 33.4 µM | LOX IMVI 57.1 µM | M14 17.1 µM | Malme-3M 30.2 µM | NCI-H522 25.2 µM | OVCAR-3 23.7 µM | OVCAR-4 > 100 µM | SF-268 17.5 µM | SF-295 36.3 µM | SK-MEL-5 15.4 µM | SN12C 29.7 µM | SNB-19 73.1 µM | SR 18.4 µM | TK-10 28.4 µM | UO-31 18.9 µM

COC(=O)C1=C(C(=O)OC)C2(C)Nc3ccccc3C2=C(c2ccccc2)C1 (stereo not given)
inactive: 786-0 22.5 µM | HOP-92 13.3 µM | LOX IMVI 25.7 µM | M14 17 µM | Malme-3M 18.4 µM | NCI-H522 15.8 µM | OVCAR-3 17.9 µM | OVCAR-4 17.9 µM | SF-268 19.1 µM | SF-295 23.2 µM | SK-MEL-5 15.5 µM | SN12C 23.7 µM | SNB-19 24 µM | TK-10 26.6 µM | UO-31 17.9 µM

O=c1cc(-c2ccccc2)oc2cc(OCC(O)COc3ccc4c(=O)cc(-c5ccccc5)oc4c3)ccc12
inactive: 786-0 17.4 µM | HOP-92 26.5 µM | LOX IMVI 25.3 µM | M14 > 100 µM | Malme-3M > 100 µM | NCI-H522 28.4 µM | OVCAR-3 32.5 µM | SF-268 14.6 µM | SF-295 38.4 µM | SK-MEL-5 > 100 µM | SNB-19 20.2 µM | TK-10 42.4 µM | UO-31 > 100 µM

COC12CCC(C(C(=O)c3ccccc3)=C1C(=O)c1ccccc1)C(O)C2 (stereo not given)
inactive: 786-0 > 100 µM | HOP-92 > 100 µM | M14 > 100 µM | Malme-3M > 100 µM | NCI-H522 > 100 µM | OVCAR-3 > 100 µM | OVCAR-4 > 100 µM | SF-268 > 100 µM | SF-295 > 100 µM | SK-MEL-5 > 100 µM | SN12C > 100 µM | SNB-19 > 100 µM | SR > 100 µM | TK-10 > 100 µM | UO-31 > 100 µM

O=C(OC1CC(n2cc(F)c(=O)[nH]c2=O)OC1CSC(=O)c1ccccc1)c1ccccc1 (stereo not given)
inactive: 786-0 32.1 µM | HOP-92 22.9 µM | LOX IMVI 50.9 µM | M14 28.1 µM | Malme-3M 28.7 µM | NCI-H522 19.5 µM | OVCAR-3 23.4 µM | OVCAR-4 16.6 µM | SF-268 25.4 µM | SF-295 33.7 µM | SN12C 28.1 µM | SNB-19 59.7 µM | TK-10 > 100 µM | UO-31 38.8 µM

CCCCSC1CCSc2c1ccc1ccccc21 (stereo not given)
inactive: 786-0 > 100 µM | HOP-92 46.8 µM | M14 74.1 µM | Malme-3M 10.2 µM | OVCAR-4 > 100 µM | SF-295 > 100 µM | SK-MEL-5 > 100 µM | SNB-19 > 100 µM | SR 72.3 µM | TK-10 > 100 µM | UO-31 > 100 µM

N#C/C(=C\c1cc(O)cc(O)c1)C(N)=O
inactive: 786-0 > 100 µM | HOP-92 > 100 µM | M14 > 100 µM | Malme-3M > 100 µM | NCI-H522 21 µM | OVCAR-3 > 100 µM | OVCAR-4 > 100 µM | SF-268 > 100 µM | SF-295 > 100 µM | SN12C > 100 µM | SNB-19 > 100 µM | TK-10 > 100 µM | UO-31 > 100 µM

C[N+](C)(C)CCC(=O)CC[N+](C)(C)C
inactive: 786-0 18.9 µM | M14 18.3 µM | Malme-3M 19.7 µM | NCI-H522 15.4 µM | OVCAR-3 18.6 µM | OVCAR-4 17.7 µM | SF-268 22.1 µM | SF-295 18.7 µM | SK-MEL-5 35.3 µM | SN12C > 10 µM | SNB-19 > 100 µM | TK-10 17 µM | UO-31 92 µM

CC12CCC(=O)N1c1cc([N+](=O)[O-])ccc1N2 (stereo not given)
inactive: 786-0 > 100 µM | LOX IMVI > 100 µM | M14 > 100 µM | Malme-3M > 100 µM | NCI-H522 > 100 µM | OVCAR-3 > 100 µM | OVCAR-4 > 100 µM | SF-268 > 100 µM | SF-295 > 100 µM | SK-MEL-5 > 100 µM | SN12C > 100 µM | SNB-19 > 100 µM | SR 76 µM | UO-31 > 100 µM
